Test results reported in ChEMBL document CHEMBL5252607, “Synthesis and biological evaluation of coumarin derivatives as selective CYP2A6 inhibitors” (Bioorg Med Chem Lett, 2023).

Tests used:
Format in all cases: ADME
Cytochrome P450 3A4 [1] = target: T1, Cytochrome P450 3A4 (Homo sapiens, UniProt P08684); assay: Non competitive inhibition of CYP3A4 (unknown origin)
Cytochrome P450 2A6 [2] = target: T2, Cytochrome P450 2A6 (Homo sapiens, UniProt P11509); assay: Inhibition of CYP2A6 (unknown origin)
T2 sequence (P11509 whole entry): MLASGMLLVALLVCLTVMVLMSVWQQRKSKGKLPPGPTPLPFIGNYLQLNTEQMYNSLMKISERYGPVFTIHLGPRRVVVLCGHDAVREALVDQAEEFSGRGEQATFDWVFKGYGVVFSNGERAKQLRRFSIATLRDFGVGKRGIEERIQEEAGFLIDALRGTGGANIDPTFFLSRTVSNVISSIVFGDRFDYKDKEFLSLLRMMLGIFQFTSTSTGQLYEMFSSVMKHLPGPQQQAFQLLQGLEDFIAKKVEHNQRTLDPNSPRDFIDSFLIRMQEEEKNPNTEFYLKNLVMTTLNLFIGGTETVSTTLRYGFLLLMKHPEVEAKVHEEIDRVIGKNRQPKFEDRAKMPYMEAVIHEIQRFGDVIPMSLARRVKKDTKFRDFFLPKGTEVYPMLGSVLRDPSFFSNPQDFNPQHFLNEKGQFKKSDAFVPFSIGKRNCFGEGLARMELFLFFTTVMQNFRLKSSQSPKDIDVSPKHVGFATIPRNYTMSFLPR

Cytochrome P450 2A6 [3] = target: T2, Cytochrome P450 2A6; assay: Competitive inhibition of CYP2A6 (unknown origin)
CYP3A4 / CYP2A6 [4] = assay: Selectivity ratio of Ki for non-competitive inhibition of CYP3A4 (unknown origin) to ratio of Ki for competitive inhibition of CYP2A6 (unknown origin); details: human; read-out: Ratio Ki
Cytochrome P450 3A4 [5] = target: T1, Cytochrome P450 3A4; assay: Mixed type inhibition of CYP3A4 (unknown origin)
CYP3A4 / CYP2A6 [6] = assay: Selectivity ratio of Ki for mixed type inhibition of CYP3A4 (unknown origin) to ratio of Ki for competitive inhibition of CYP2A6 (unknown origin); details: human; read-out: Ratio Ki
Cytochrome P450 3A4 [7] = target: T1, Cytochrome P450 3A4; assay: Inhibition of CYP3A4 (unknown origin)
CYP3A4 / CYP2A6 [8] = assay: Selectivity ratio of Ki for non-competitive inhibition of CYP3A4 (unknown origin) to ratio of Ki for mixed type inhibition of CYP2A6 (unknown origin); details: human; read-out: Ratio Ki
Cytochrome P450 2A6 [9] = target: T2, Cytochrome P450 2A6; assay: Mixed type inhibition of CYP2A6 (unknown origin)
CYP2A6 = target: T3, CYP2A6 (Homo sapiens, UniProt P11509); assay: Inhibition of CYP2A6 (unknown origin) assessed as residual activity preincubated for 10 mins
T3 sequence (P11509 whole entry): T2 sequence (P11509 whole entry)

T1 sequence (P08684 whole entry): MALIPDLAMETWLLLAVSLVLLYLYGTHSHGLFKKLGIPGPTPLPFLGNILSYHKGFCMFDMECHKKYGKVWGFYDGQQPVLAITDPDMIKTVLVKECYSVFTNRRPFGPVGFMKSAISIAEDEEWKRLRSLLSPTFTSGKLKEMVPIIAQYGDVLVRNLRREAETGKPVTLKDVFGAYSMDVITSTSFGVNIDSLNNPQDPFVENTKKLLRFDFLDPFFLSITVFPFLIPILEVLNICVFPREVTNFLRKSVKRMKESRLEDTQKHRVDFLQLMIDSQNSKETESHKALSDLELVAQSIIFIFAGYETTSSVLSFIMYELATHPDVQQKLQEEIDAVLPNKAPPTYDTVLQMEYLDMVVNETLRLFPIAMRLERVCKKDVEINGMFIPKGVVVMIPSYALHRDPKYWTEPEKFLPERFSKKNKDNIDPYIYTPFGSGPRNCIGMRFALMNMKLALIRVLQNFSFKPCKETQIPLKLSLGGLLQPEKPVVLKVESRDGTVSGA

Compound	Ki (Cytochrome P450 3A4 [1]) [µM]	IC50 (Cytochrome P450 2A6 [2]) [µM]	Ki (Cytochrome P450 2A6 [3]) [µM]	Ki (Cytochrome P450 3A4 [5]) [µM]	IC50 (Cytochrome P450 3A4 [7]) [µM]	Ki (Cytochrome P450 2A6 [9]) [µM]	activity (CYP2A6) [%]	selectivity ratio (CYP3A4 / CYP2A6 [4])	selectivity ratio (CYP3A4 / CYP2A6 [6])	selectivity ratio (CYP3A4 / CYP2A6 [8])
CCCOc1cccc2oc(=O)ccc12		1.06	0.54		> 250					
COc1cccc2oc(=O)ccc12	448	0.13				0.05				8970
COc1cccc2ccc(=O)oc12		7.47	4		> 250		62			
COc1c2occc2cc2ccc(=O)oc12 [METHOXSALEN]							52			

The next lines start with results.

Ki (Cytochrome P450 3A4 [1]) [µM]	IC50 (Cytochrome P450 2A6 [2]) [µM]	Ki (Cytochrome P450 2A6 [3]) [µM]	Ki (Cytochrome P450 3A4 [5]) [µM]	IC50 (Cytochrome P450 3A4 [7]) [µM]	Ki (Cytochrome P450 2A6 [9]) [µM]	activity (CYP2A6) [%]	Compound	selectivity ratio (CYP3A4 / CYP2A6 [4])	selectivity ratio (CYP3A4 / CYP2A6 [6])	selectivity ratio (CYP3A4 / CYP2A6 [8])
424	0.17	0.08					CCOc1cccc2oc(=O)ccc12	5300		
	0.05	0.03	28.1				C=CCOc1cccc2oc(=O)ccc12		937	
	0.2	0.25		> 250			COc1ccc2oc(=O)ccc2c1			
	0.04	0.01	46.6			57	C#CCOc1cccc2oc(=O)ccc12		4660	
